Source: BindingDB's records for patent WO2025064535 (Deep Apple Therapeutics, 2025)
pIC50: −log10 of the molar value.

How the values were obtained:
[1] = target: T1, Mas-related G-protein coupled receptor member X2 (Homo sapiens, UniProt Q96LB1); assay: MRGPRX2 Activity Assay
T1 sequence (Q96LB1 whole entry): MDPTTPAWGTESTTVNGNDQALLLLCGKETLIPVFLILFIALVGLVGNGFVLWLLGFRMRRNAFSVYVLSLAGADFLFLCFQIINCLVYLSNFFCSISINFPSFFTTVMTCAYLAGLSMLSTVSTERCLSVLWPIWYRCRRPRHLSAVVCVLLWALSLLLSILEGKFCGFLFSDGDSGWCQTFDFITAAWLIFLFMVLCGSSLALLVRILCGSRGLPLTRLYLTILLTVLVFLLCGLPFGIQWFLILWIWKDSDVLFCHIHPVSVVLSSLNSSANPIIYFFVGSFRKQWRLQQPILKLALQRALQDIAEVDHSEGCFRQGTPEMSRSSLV
Method: FlpIn TRex-MRGPRX2-HEK293 cells (herein TRex-MRPGRX2-HEK) stably transfected to express human MRGPRX2 were maintained at 37 °C with 5% CO2 and grown in DMEM supplemented with 10% FBS, 1% L-Glutamate, 1% penicillin/streptomycin, 100ug/mL Hygromycin B, and 15 µg/mL Blasticidin. GOI (MRGPRX2) expression was induced with 100ng/mL of Doxycycline 18-24 hours prior to experiment, in flask. On the day of experiment, cells were lifted with TripLE Express and seeded in 384-well white walled opaque bottomed, assay plates, at 8,000 cells per well in 5 µL freshly made assay buffer (HBSS, 20 mM HEPES, 0.1% BSA and 10 mM LiCl). Compounds solubilized in 100% DMSO at 30 mM were serially diluted (1:4) first in 100% DMSO, and an intermediate plate of assay buffer was used to establish a final top concentration of 30 µM (in assay plate). Final DMSO concentration was kept constant at 1% across assay plates. Cortistatin-14, at 30 mM stock concentration was solubilized in HBSS + 0.1% BSA, stored at -20°C in 5 µL aliquots and discarded after one freeze-thaw cycle. […] Antagonist equilibrium was established with 30 minutes preincubation, followed by no wash, direct addition, and stimulation of agonist for 1 hour at 37 °C / 5% CO2. IP-1 standards and HTRF detection reagents were added according to the IP-one Gq kit protocol purchased from CisBio (part number 62IPAPEJ). The plate was read on an EnVision XCite plate reader. The HTRF ratio was then calculated from raw data (channel1/channel2 ×10,000) and analyzed using either GraphPad Prism or a custom Python script to calculate IC50 using Log[Antagonist] vs. response (4 parameter) nonlinear regression.

[2] = target: T1, Mas-related G-protein coupled receptor member X2; assay: LAD2 Degranulation Assay (Protocol 2)
Method: LAD-2 cells were maintained at 37 °C with 5% CO2 and grown in complete StemPro-34 media supplemented with 1% L-Glutamate, 1% penicillin/streptomycin, and 250 ng/mL human SCF. 18-24 hours prior to experiment, LAD-2 cells were collected and transferred to growth media without SCF. […] For dose-response assays, compounds solubilized in 100% DMSO at 30 mM were serially diluted (1:3) first in 100% DMSO, and 2 intermediate dilutions with assay buffer were used to establish a final top concentration of 3 ^M (in assay plate). […] Final DMSO concentration was kept constant at 0.1% across plates for all assays. Cortistatin-14 at 30 mM stock concentration was solubilized in HBSS + 0.1% BSA, stored at -20°C in 5 ^L aliquots and discarded after one freeze-thaw cycle. Final concentration of agonist used in both dose-response and single point assays was 0.5 ^M, prepared in assay buffer. Antagonist equilibrium was established with 2 h preincubation, followed by no wash, direct addition, and stimulation of agonist for 30 minutes at 37 °C. For detection of ^-hexosaminidase activity, assay plates were centrifuged and 5 ^L of cell-free supernatant from each assay well was transferred to a black-walled black-bottomed 384-well plate. Substrate solution (1 mM 4-Methylumbelliferyl N-acetyl-β-D-glucosaminide in citrate buffer, pH=4.5, 15 ^l) was added to each well and plates were incubated for 1 hour at 37 °C. […] Background-subtracted data was analyzed using either GraphPad Prism or a custom Python script to calculate IC50 using either Log[Antagonist] vs. response (4 parameter) nonlinear regression (dose-response assays).

[3] = target: T1, Mas-related G-protein coupled receptor member X2; assay: LAD2 Degranulation Assay (Protocol 1)
Method: LAD-2 cells were maintained at 37 °C with 5% CO2 and grown in complete StemPro-34 media supplemented with 1% L-Glutamate, 1% penicillin/streptomycin, and 250 ng/mL human SCF. On the day of experiment, cells were collected by centrifugation and seeded in 384-well assay plates, at 4,000 cells per well in 10 ^l freshly made assay buffer (10 mM HEPES, 130 mM NaCl, 5 mM KCl, 1.8 mM CaCl2, 1.0 mM MgCl2, 5.6 mM glucose, 0.1% BSA, pH = 7.40). For dose-response assays, compounds solubilized in 100% DMSO at 30 mM were serially diluted (1:3) first in 100% DMSO, and 2 intermediate dilutions with assay buffer were used to establish a final top concentration of 3 ^M (in assay plate). Final DMSO concentration was kept constant at 0.1% across plates for all assays. Cortistatin-14 at 30 mM stock concentration was solubilized in HBSS + 0.1% BSA, stored at -20°C in 5 ^L aliquots and discarded after one freeze-thaw cycle. Final concentration of agonist used in both dose-response and single point assays was 1 ^M, prepared in assay buffer. Antagonist equilibrium was established with 30 minute preincubation, followed by no wash, direct addition, and stimulation of agonist for 30 minutes at 37 °C. For detection of ^-hexosaminidase activity, assay plates were centrifuged and 5 ^l of cell-free supernatant from each assay well was transferred to a black-walled black-bottomed 384-well plate. Substrate solution (1 mM 4-Methylumbelliferyl N-acetyl-β-D-glucosaminide in citrate buffer, pH=4.5, 15 ^l) was added to each well and plates were incubated for 1 hour at 37 °C. […] Background-subtracted data was analyzed using either GraphPad Prism or a custom Python script to calculate IC50 using either Log[Antagonist] vs. response (4 parameter) nonlinear regression (dose-response assays).

Row | SMILES | pIC50 [1] | pIC50 [2] | pIC50 [3]
1 | C[C@@H](C(=O)Nc1nc2cc3c(cc2s1)OC(F)(F)O3)N1CCC(F)(F)[C@@H](c2c[nH]c(=O)cn2)C1 [WO2025064535, Compound 34] | 7.85 | 7.28 | –
2 | C[C@@H](C(=O)Nc1nc2cc3c(cc2s1)OC(F)(F)O3)N1CCC(F)(F)[C@H](c2c[nH]c(=O)c([C@@H](O)CO)c2)C1 [WO2025064535, Compound 43] | 7.96 | 8.13 | –
3 | C[C@@H](C(=O)Nc1nc2cc3c(cc2s1)OC(F)(F)O3)N1CCC(F)(F)[C@H](c2c[nH]c(=O)c(CN)c2)C1 [WO2025064535, Compound 85] | 7.44 | 7.09 | 6.89
4 | CNCc1cc([C@H]2CN([C@@H](C)C(=O)Nc3nc4cc5c(cc4s3)OC(F)(F)O5)CCC2(F)F)c[nH]c1=O [WO2025064535, Compound 86] | < 4.52 | – | < 5.52
5 | CNCc1cc([C@@H]2CN([C@@H](C)C(=O)Nc3nc4cc5c(cc4s3)OC(F)(F)O5)CCC2(F)F)c[nH]c1=O [WO2025064535, Compound 87] | 7.39 | – | 6.65
6 | C[C@@H](C(=O)Nc1nc2cc3c(cc2s1)OC(F)(F)O3)N1CCC(F)(F)[C@@H](c2c[nH]c(=O)c(CO)n2)C1 [WO2025064535, Compound 90] | < 4.76 | – | < 5.52
7 | C[C@@H](C(=O)Nc1nc2cc3c(cc2s1)OC(F)(F)O3)N1CCC(F)(F)[C@H](c2c[nH]c(=O)c(CO)n2)C1 [WO2025064535, Compound 91] | 7.44 | 7.17 | 6.63
8 | C[C@@H](C(=O)Nc1nc2cc3c(cc2s1)CCC3)N1CCC(F)(F)[C@H](c2c[nH]c(=O)c(CO)c2)C1 [WO2025064535, Compound 107] | 7.31 | 7.00 | 6.23

Second part, the compound after the results:

Row | pIC50 [1] | pIC50 [2] | pIC50 [3] | SMILES
9 | 7.74 | 6.84 | – | C[C@@H](C(=O)Nc1nc2cc3c(cc2s1)CCC3)N1CCC(F)(F)[C@H](c2ccc(=O)[nH]c2)C1 [WO2025064535, Compound 28]
10 | 8.07 | 7.70 | – | C[C@@H](C(=O)Nc1nc2cc3c(cc2s1)OCCO3)N1CCC(F)(F)[C@@H](c2ccc(=O)[nH]c2)C1 [WO2025064535, Compound 29]
11 | 7.82 | 7.57 | – | C[C@@H](C(=O)Nc1nc2cc3c(cc2s1)OC(F)(F)O3)N1CCC(F)(F)[C@H](c2ccc(=O)[nH]c2)C1 [WO2025064535, Compound 32]
12 | 7.49 | 7.14 | – | C[C@@H](C(=O)Nc1nc2cc3c(cc2s1)OC(F)(F)O3)N1CC[C@H](F)[C@@H](c2cc[n+]([O-])cc2)C1 [WO2025064535, Compound 38]
13 | 8.23 | 7.64 | – | C[C@@H](C(=O)Nc1nc2cc3c(cc2s1)OCCO3)N1CCC(F)(F)[C@H](c2c[nH]c(=O)cn2)C1 [WO2025064535, Compound 41]
14 | < 4.52 | < 5.52 | – | C[C@@H](C(=O)Nc1nc2cc3c(cc2s1)OC(F)(F)O3)N1CCC[C@@H](c2cc[n+]([O-])cc2)C1 [WO2025064535, Compound 49]
15 | 8.11 | 8.18 | – | C[C@@H](C(=O)Nc1nc2cc3c(cc2s1)OC(F)(F)O3)N1CCC(F)(F)[C@H](c2cc[n+]([O-])c([C@H](O)CO)c2)C1 [WO2025064535, Compound 54]
16 | 8.43 | – | 7.92 | C[C@H](C(=O)Nc1nc2cc3c(cc2s1)OCO3)N1CCC(F)(F)[C@@H](c2cc[n+]([O-])cc2)C1 [WO2025064535, Compound 81]
17 | 5.71 | – | < 5.52 | C[C@@H](C(=O)Nc1nc2cc3c(cc2s1)OC(F)(F)O3)N1CCC(F)(F)[C@@H](c2c[nH]c(=O)c(CO)c2)C1 [WO2025064535, Compound 88]
18 | 7.52 | 7.18 | 6.67 | C[C@@H](C(=O)Nc1nc2cc3c(cc2s1)OC(F)(F)O3)N1CCC(F)(F)[C@H](c2c[nH]c(=O)c(CO)c2)C1 [WO2025064535, Compound 89]
19 | 7.06 | – | 6.46 | CNCc1cc([C@@H]2CN([C@@H](C)C(=O)Nc3nc4cc5c(cc4s3)OC(F)(F)O5)CCC2(F)F)cc[n+]1[O-] [WO2025064535, Compound 102]
